Laboratory results from PubChem BioAssay (NCI).
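All cell lines were grown in 96-well plates and treated with compound for 48 hours. GI50 = concentration required for 50% inhibition of growth. TGI is the concentration that stops growth completely.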

Experiments:
Experiment in all cases: DTP human tumour cell line panel, 48 h
[1] = test system: PC-3 prostate
[2] = test system: SF-539 CNS
[3] = test system: SK-OV-3 ovarian
[4] = test system: SNB-75 CNS
[5] = test system: M14 melanoma
[6] = test system: CCRF-CEM leukemia
[7] = test system: TK-10 renal
[8] = test system: MOLT-4 leukemia
[9] = test system: MCF7 breast
[10] = test system: KM12 colon

SMILES	TGI [1] [µM]	TGI [2] [µM]	TGI [3] [µM]	TGI [4] [µM]	TGI [5] [µM]	TGI [6] [µM]	TGI [7] [µM]	TGI [8] [µM]	TGI [9] [µM]	TGI [10] [µM]	GI50 [1] [µM]	GI50 [2] [µM]	GI50 [3] [µM]	GI50 [4] [µM]	GI50 [5] [µM]	GI50 [6] [µM]	GI50 [7] [µM]	GI50 [8] [µM]	GI50 [9] [µM]	GI50 [10] [µM]
O=Nc1c(-c2cccc([N+](=O)[O-])c2)nc2cnccn12	62.6	59.1	> 100	> 100	42	1.72	26.3	27.6	> 100	95.4										
Nc1nc2c(c3ncccc13)C(c1ccc(Cl)c(Cl)c1)Cc1ncccc1-2 (stereo not given)	15.5	5.35	12.6	6.6	12.3	16.6	20.5	15.2	14.2	14.4	3.4	2.15	3.49	1.85	3.2	3.27	6.46	3.3	2.99	2.73
O=c1[nH]cnc2c1nnn2C1OC(CO)C(O)C1O (stereo not given)	> 100	63.8	> 100	> 100	> 56.2	> 28	> 30.2	> 100	> 78.8	> 100	2.43	4.06	0.375	2.43	1.84	0.551	1.5	2.44	1.41	3.89
